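Following 48 hours of exposure in 96-well plates, responses at five concentrations were used to interpolate endpoints linearly. GI50 marks 50% less growth.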 The source made the active and inactive calls. No stated cut-off is given here; in the data, active = GI50 up to about 1.1 µM and inactive = higher.
Legend:
Assay in all cases: growth of human tumour cells (NCI), 48 h
KM12 = test system: KM12
NCI-H23 = test system: NCI-H23
SK-OV-3 = test system: SK-OV-3
NCI-H522 = test system: NCI-H522
EKVX = test system: EKVX
UACC-62 = test system: UACC-62
CCRF-CEM = test system: CCRF-CEM
OVCAR-5 = test system: OVCAR-5
PC-3 = test system: PC-3
SF-295 = test system: SF-295
K562 = test system: K562
HCT-15 = test system: HCT-15
CAKI-1 = test system: CAKI-1
MOLT-4 = test system: MOLT-4
HL-60 = test system: HL-60
M14 = test system: M14
NCI/ADR-RES = test system: NCI/ADR-RES
NCI-H226 = test system: NCI-H226
NCI-H460 = test system: NCI-H460
A549 = test system: A549

Compound	GI50 (KM12)	GI50 (NCI-H23)	GI50 (SK-OV-3)	GI50 (NCI-H522)	GI50 (EKVX)	GI50 (UACC-62)	GI50 (CCRF-CEM)	GI50 (OVCAR-5)	GI50 (PC-3)	GI50 (SF-295)	GI50 (K562)	GI50 (HCT-15) [µM]	GI50 (CAKI-1)	GI50 (MOLT-4)	GI50 (HL-60)	GI50 (M14)	GI50 (NCI/ADR-RES)	GI50 (NCI-H226)	GI50 (NCI-H460)	GI50 (A549)
C=CC(C)(O)CCC1C(=C)C(O)CC2C(C)(C)CCCC12C (stereo not given)	21.1 µM (inactive)	18.7 µM (inactive)	33.3 µM (inactive)	17.6 µM (inactive)	19.1 µM (inactive)	16 µM (inactive)	18.5 µM (inactive)	20 µM (inactive)	15.3 µM (inactive)	21.1 µM (inactive)	14.4 µM (inactive)	17.6	23.5 µM (inactive)	14.2 µM (inactive)	14 µM (inactive)	16.3 µM (inactive)	18.5 µM (inactive)	15.6 µM (inactive)	16.9 µM (inactive)	22.1 µM (inactive)
Cc1cc(=O)oc2c(CNC(Cc3ccccc3)C(=O)O)c(O)ccc12 (stereo not given)	> 100 µM (inactive)	> 100 µM (inactive)	> 100 µM (inactive)	> 100 µM (inactive)	> 100 µM (inactive)	> 100 µM (inactive)	> 100 µM (inactive)	> 100 µM (inactive)	> 100 µM (inactive)	> 100 µM (inactive)	> 100 µM (inactive)	> 100	> 100 µM (inactive)	> 100 µM (inactive)	> 100 µM (inactive)	> 100 µM (inactive)	> 100 µM (inactive)	> 100 µM (inactive)	> 100 µM (inactive)	> 100 µM (inactive)
CNC(=S)NN=C1NCCCN1	> 100 µM (inactive)	> 100 µM (inactive)	> 100 µM (inactive)	> 100 µM (inactive)	> 100 µM (inactive)	> 100 µM (inactive)	> 100 µM (inactive)	> 100 µM (inactive)	> 100 µM (inactive)	> 100 µM (inactive)	> 100 µM (inactive)	> 100	> 100 µM (inactive)	> 100 µM (inactive)	> 100 µM (inactive)	> 100 µM (inactive)	> 100 µM (inactive)	> 100 µM (inactive)	> 100 µM (inactive)	> 100 µM (inactive)
CN(C)CCNC1=CC(=O)c2c(O)ccc(O)c2C1=O	6.35 µM (inactive)	4.98 µM (inactive)	28.6 µM (inactive)	3.73 µM (inactive)	12.8 µM (inactive)	2.33 µM (inactive)	3.94 µM (inactive)	14.2 µM (inactive)	5.77 µM (inactive)	11.4 µM (inactive)	2.52 µM (inactive)	4.08	13.9 µM (inactive)	5.14 µM (inactive)	1.95 µM (inactive)	3.23 µM (inactive)	2.58 µM (inactive)	17.6 µM (inactive)	3.3 µM (inactive)	10.1 µM (inactive)
CCOC(=O)c1sc2c(c1OC(=O)c1cc(OC)c(OC)c(OC)c1)c(=O)n(-c1ccccc1)c(=S)n2-c1ccccc1	> 100 µM (inactive)	53.1 µM (inactive)	> 100 µM (inactive)	4.81 µM (inactive)	45.5 µM (inactive)	51.8 µM (inactive)	17.5 µM (inactive)	> 100 µM (inactive)	63.5 µM (inactive)	> 100 µM (inactive)	65 µM (inactive)	47.3	> 100 µM (inactive)	28.4 µM (inactive)	62.8 µM (inactive)	40.5 µM (inactive)	75.3 µM (inactive)	> 100 µM (inactive)	51.5 µM (inactive)	> 100 µM (inactive)
CCOC(=O)C(SCCO)C(C(=O)OCC)n1cc(C)c(=O)[nH]c1=O (stereo not given)	25.8 µM (inactive)	21.2 µM (inactive)	> 79.3 µM (inactive)	3.3 µM (inactive)	30.7 µM (inactive)	16.3 µM (inactive)	2.42 µM (inactive)	15 µM (inactive)	13.9 µM (inactive)	> 79.4 µM (inactive)	3.48 µM (inactive)	4.41	4.44 µM (inactive)	4.81 µM (inactive)	2.12 µM (inactive)	11.6 µM (inactive)	24.8 µM (inactive)	> 32.7 µM (inactive)	21.5 µM (inactive)	52.8 µM (inactive)
NCS(=O)(=O)O	> 100 µM (inactive)	> 100 µM (inactive)	> 100 µM (inactive)	> 100 µM (inactive)	> 100 µM (inactive)	> 100 µM (inactive)	> 100 µM (inactive)	> 100 µM (inactive)	> 100 µM (inactive)	> 100 µM (inactive)	> 100 µM (inactive)	> 100	> 100 µM (inactive)	> 100 µM (inactive)	> 100 µM (inactive)	> 100 µM (inactive)	> 100 µM (inactive)	> 100 µM (inactive)	35.2 µM (inactive)	> 100 µM (inactive)
CN(COC(=O)c1ccccc1)c1nc(N(C)COC(=O)c2ccccc2)nc(N(C)COC(=O)c2ccccc2)n1	> 100 µM (inactive)	41.5 µM (inactive)	> 65.2 µM (inactive)	52.4 µM (inactive)	> 83.6 µM (inactive)	> 60.7 µM (inactive)	> 100 µM (inactive)	> 100 µM (inactive)	> 100 µM (inactive)	23.9 µM (inactive)	> 27.4 µM (inactive)	> 100	57.7 µM (inactive)	> 100 µM (inactive)	> 100 µM (inactive)	> 86.3 µM (inactive)	50.1 µM (inactive)	30.4 µM (inactive)	> 69.5 µM (inactive)	> 100 µM (inactive)
Cc1nc2cccc([N+](=O)[O-])c2c(NCCCN(C)C)c1C	34.6 µM (inactive)	28.1 µM (inactive)	> 100 µM (inactive)	15.2 µM (inactive)	> 31.6 µM (inactive)	> 100 µM (inactive)	21.3 µM (inactive)	27 µM (inactive)	17.8 µM (inactive)	36.6 µM (inactive)	31.7 µM (inactive)	26.5	32.9 µM (inactive)	20.5 µM (inactive)	11 µM (inactive)	35.5 µM (inactive)	> 100 µM (inactive)	> 50.6 µM (inactive)	24 µM (inactive)	60.4 µM (inactive)
Cc1sc(NC=C2C(=O)CC(C)(C)CC2=O)nc1-c1ccccc1	> 100 µM (inactive)	> 100 µM (inactive)	> 100 µM (inactive)	80.5 µM (inactive)	> 100 µM (inactive)	> 100 µM (inactive)	72.6 µM (inactive)	> 100 µM (inactive)	> 100 µM (inactive)	> 100 µM (inactive)	> 100 µM (inactive)	> 100	> 100 µM (inactive)	> 100 µM (inactive)	2.17 µM (inactive)	> 100 µM (inactive)	> 100 µM (inactive)	> 100 µM (inactive)	> 100 µM (inactive)	> 100 µM (inactive)
NCCC(N)C(=O)O (stereo not given)	> 100 µM (inactive)	> 100 µM (inactive)	> 100 µM (inactive)	> 100 µM (inactive)	> 100 µM (inactive)	> 100 µM (inactive)	> 100 µM (inactive)	> 100 µM (inactive)	> 100 µM (inactive)	> 100 µM (inactive)	> 100 µM (inactive)	> 100	> 100 µM (inactive)	> 100 µM (inactive)	> 100 µM (inactive)	> 100 µM (inactive)	> 100 µM (inactive)	> 100 µM (inactive)	> 100 µM (inactive)	> 100 µM (inactive)

— ChEMBL document CHEMBL1201862, “PubChem BioAssay data set” (2004)
